pIC50: −log10 of the molar value.

Data on 16 compounds can be found in patent US10308644B2, “Heterocyclic compounds as immunomodulators” (Incyte Corporation, priority 2016, dated 2019).

The target of this assay is PD-1/PD-L1 (Homo sapiens (Human), UniProt Q9NZQ7). Briefly: PD-1/PD-L1 Homogeneous Time-Resolved Fluorescence (HTRF) Binding Assay. The note with it: recombinant human PD-1 (3 nM) and PD-L1 (10 nM), 25° C., PBS pH 7.4. A digest of the protocol: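 Fc-tagged human PD-1 (25-167, 3 nM) and His-tagged PD-L1 (19-238, 10 nM) preincubated with inhibitor 40 min in PBS pH 7.4, 0.05% Tween-20, 0.1% BSA, 1% DMSO, 25 °C. Binding detected by HTRF (Eu anti-IgG/APC anti-His, 665/620 nm) after 60 min; IC50 from percent control activity.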
PD-1/PD-L1, sequence (Q9NZQ7 19-238): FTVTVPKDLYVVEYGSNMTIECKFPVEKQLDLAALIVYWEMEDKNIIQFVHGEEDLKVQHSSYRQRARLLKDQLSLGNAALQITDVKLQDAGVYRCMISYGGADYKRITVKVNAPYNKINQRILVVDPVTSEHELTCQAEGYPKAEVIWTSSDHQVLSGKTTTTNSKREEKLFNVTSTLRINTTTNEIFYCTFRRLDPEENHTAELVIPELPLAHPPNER

Turning to `Cc1c(Nc2ncnc3cc(CNC[C@H](C)O)cnc23)cccc1-c1cccc(-c2nc3cc(CN4CC[C@@](C)(C(=O)O)C4)cc(C#N)c3o2)c1C` [Example 208, (R)-1-((7-cyano-2-(3′-(7-(((S)-2-hydroxypropylamino)methyl)pyrido[3,2-d]pyrimidin-4-ylamino)-2,2′-dimethylbiphenyl-3-yl)benzo[d]oxazol-5-yl)methyl)-3-methylpyrrolidine-3-carboxylic acid], the pIC50 was ≥ 8.00.
To `Cc1c(Nc2ncnc3cc(CN4CCCC4)cnc23)cccc1-c1cccc(-c2nc3cc(CN4CC[C@@H](C(=O)O)C4)cc(C#N)c3o2)c1C` [Example 209, (R)-1-((7-cyano-2-(2,2′-dimethyl-3′-(7-(pyrrolidin-1-ylmethyl)pyrido[3,2-d]pyrimidin-4-ylamino)biphenyl-3-yl)benzo[d]oxazol-5-yl)methyl)pyrrolidine-3-carboxylic acid] belongs ≥ 8.00.
As to `Cc1c(Nc2nccc3cc(CN4CC[C@@H](C(=O)O)C4)cnc23)cccc1-c1cccc(-c2nc3cc(CNC[C@H](C)O)cc(C#N)c3o2)c1C` [Example 210, (R)-1-((8-(3′-(7-cyano-5-(((S)-2-hydroxypropylamino)methyl)benzo[d]oxazol-2-yl)-2,2′-dimethylbiphenyl-3-ylamino)-1,7-naphthyridin-3-yl)methyl)pyrrolidine-3-carboxylic acid], the negative-log IC50 (pIC50) is ≥ 8.00.
For `Cc1c(Nc2nccc3cc(CN4CC[C@@H](C(=O)O)C4)cnc23)cccc1-c1cccc(-c2nc3cc(CN[C@@H](C)CO)cc(C#N)c3o2)c1C` [Example 211, (R)-1-((8-(3′-(7-cyano-5-(((S)-1-hydroxypropan-2-ylamino)methyl)benzo[d]oxazol-2-yl)-2,2′-dimethylbiphenyl-3-ylamino)-1,7-naphthyridin-3-yl)methyl)pyrrolidine-3-carboxylic acid], the negative-log IC50 (pIC50) was ≥ 8.00.
As to `Cc1c(Nc2nccc3cc(CN4CCC(C(=O)O)CC4)cnc23)cccc1-c1cccc(-c2nc3cc(CNC[C@H](C)O)cc(C#N)c3o2)c1C` [Example 212, (S)-1-((8-(3′-(7-cyano-5-((2-hydroxypropylamino)methyl)benzo[d]oxazol-2-yl)-2,2′-dimethylbiphenyl-3-ylamino)-1,7-naphthyridin-3-yl)methyl)piperidine-4-carboxylic acid], the pIC50 was ≥ 8.00.
As for `Cc1c(Nc2nccc3cc(CN4CCC(C(=O)O)CC4)cnc23)cccc1-c1cccc(-c2nc3cc(CN[C@@H](C)CO)cc(C#N)c3o2)c1C` [Example 213, (S)-1-((8-(3′-(7-cyano-5-((1-hydroxypropan-2-ylamino)methyl)benzo[d]oxazol-2-yl)-2,2′-dimethylbiphenyl-3-ylamino)1,7-naphthyridin-3-yl)methyl)piperidine-4-carboxylic acid], the pIC50 is ≥ 8.00.
Consider `Cc1c(Nc2nccc3cc(CN4CCC(C(=O)O)CC4)cnc23)cccc1-c1cccc(-c2nc3cc(CN4CC[C@@H](O)C4)cc(C#N)c3o2)c1C` [Example 214, (R)-1-((8-(3′-(7-cyano-5-((3-hydroxypyrrolidin-1-yl)methyl)benzo[d]oxazol-2-yl)-2,2′-dimethylbiphenyl-3-ylamino)-1,7-naphthyridin-3-yl)methyl)piperidine-4-carboxylic acid], for which the pIC50 is ≥ 8.00.
Take `Cc1c(Nc2nccc3cc(CN4CC[C@@](C)(C(=O)O)C4)cnc23)cccc1-c1cccc(-c2nc3cc(CN[C@@H](C)CO)cc(C#N)c3o2)c1C` [Example 215, (R)-1-((8-(3′-(7-cyano-5-(((S)-1-hydroxypropan-2-ylamino)methyl)benzo[d]oxazol-2-yl)-2,2′-dimethylbiphenyl-3-ylamino)-1,7-naphthyridin-3-yl)methyl)-3-methylpyrrolidine-3-carboxylic acid]: the pIC50 was ≥ 8.00.
`Cc1c(Nc2nccc3cc(CN4CC[C@@](C)(C(=O)O)C4)cnc23)cccc1-c1cccc(-c2nc3cc(CN4CC[C@@H](O)C4)cc(C#N)c3o2)c1C` [Example 216, (R)-1-((8-(3′-(7-cyano-5-(((R)-3-hydroxypyrrolidin-1-yl)methyl)benzo [d]oxazol-2-yl)-2,2′-dimethylbiphenyl-3-ylamino)-1,7-naphthyridin-3-yl)methyl)-3-methylpyrrolidine-3-carboxylic acid]: the pIC50 is ≥ 8.00.
`Cc1c(-c2nc3cc(CN4CC[C@@](C)(C(=O)O)C4)cc(C#N)c3o2)cccc1-c1cccc(-c2nc3c(s2)CN(C(=O)CN(C)C(C)C)C3)c1C` [Example 217, (R)-1-((7-cyano-2-(3′-(5-(2-(isopropyl(methyl)amino)acetyl)-5,6-dihydro-4H-pyrrolo[3,4-d]thiazol-2-yl)-2,2′-dimethylbiphenyl-3-yl)benzo[d]oxazol-5-yl)methyl)-3-methylpyrrolidine-3-carboxylic acid]: the pIC50 was ≥ 8.00.
To `CCN(C)CC(=O)N1Cc2nc(-c3cccc(-c4cccc(-c5nc6cc(CN7CC[C@@](C)(C(=O)O)C7)cc(C#N)c6o5)c4C)c3C)sc2C1` [Example 218, (R)-1((7-cyano-2-(3′-(5-(2-(ethyl(methyl)amino)acetyl)-5,6-dihydro-4H-pyrrolo[3,4-d]thiazol-2-yl)-2,2′-dimethylbiphenyl-3-yl)benzo[d]oxazol-5-yl)methyl)-3-methylpyrrolidine-3-carboxylic acid] belongs ≥ 8.00; to `Cc1c(-c2nc3cc(CN4CC[C@@](C)(C(=O)O)C4)cc(C#N)c3o2)cccc1-c1cccc(-c2nc3c(s2)CN(C(=O)CN(C)CC2CC2)C3)c1C` [Example 219, (R)-1-((7-cyano-2-(3′-(5-(2-((cyclopropylmethyl) (methyl)amino)acetyl)-5,6-dihydro-4H-pyrrolo[3,4-d]thiazol-2-yl)-2,2′-dimethylbiphenyl-3-yl)benzo[d]oxazol-5-yl)methyl)-3-methylpyrrolidine-3-carboxylic acid], ≥ 8.00.
`CCN(C)CC(=O)N1Cc2nc(-c3cccc(-c4cccc(-c5nc6cc(CN7CC8(C(=O)O)CC7C8)cc(C#N)c6o5)c4C)c3C)sc2C1` [Example 220, 2-((7-cyano-2-(3′-(5-(2-(ethyl(methyl)amino)acetyl)-5,6-dihydro-4H-pyrrolo[3,4-d]thiazol-2-yl)-2,2′-dimethylbiphenyl-3-yl)benzo[d]oxazol-5-yl)methyl)-2-azabicyclo[2.1.1]hexane-4-carboxylic acid]: the pIC50 was ≥ 8.00.
Regarding `Cc1c(-c2nc3cc(CN4CC[C@@](C)(C(=O)O)C4)cc(C#N)c3o2)cccc1-c1cccc(-c2nc3c(s2)CN(C(=O)CN2CC[C@H](O)C2)C3)c1C` [Example 221, (R)-1-((7-cyano-2-(3′-(5-(2-((S)-3-hydroxypyrrolidin-1-yl)acetyl)-5,6-dihydro-4H-pyrrolo[3,4-d]thiazol-2-yl)-2,2′-dimethylbiphenyl-3-yl)benzo[d]oxazol-5-yl)methyl)-3-methylpyrrolidine-3-carboxylic acid], the negative-log IC50 (pIC50) is ≥ 8.00.
In the case of `Cc1c(-c2nc3cc(CN4CC[C@@](C)(C(=O)O)C4)cc(C#N)c3o2)cccc1-c1cccc(-c2nc3c(s2)CN(C(=O)CN2CC[C@@H](O)C2)C3)c1C` [Example 222], the negative-log IC50 (pIC50) was ≥ 8.00.
On to `CCN1CCN(CC(=O)N2Cc3nc(-c4cccc(-c5cccc(-c6nc7cc(CN8CC[C@@](C)(C(=O)O)C8)cc(C#N)c7o6)c5C)c4C)sc3C2)CC1` [Example 223, (R)-1-((7-cyano-2-(3′-(5-(2-(4-ethylpiperazin-1-yl)acetyl)-5,6-dihydro-4H-pyrrolo[3,4-d]thiazol-2-yl)-2,2′-dimethylbiphenyl-3-yl)benzo[d]oxazol-5-yl)methyl)-3-methylpyrrolidine-3-carboxylic acid], for which the negative-log IC50 (pIC50) was ≥ 8.00.

By pIC50 is commonly meant the IC50 on a negative log10 scale, so that one unit is a factor of ten.
